# System: HT-29 cells
# Assay: HT-29 cell necrosis/necroptosis inhibition (TNF-α + SMAC mimetic + zVAD-FMK; CellTiter-Glo cell viability)
# Assay type: cell-based
# Details: Homo sapiens, HT-29, 20 h, read-out: EC50 (Cell activity; Necrosis/Necroptosis Inhibitory Activity, Compounds 1-142)
# Summary of the method: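 Necroptosis was driven by TNF-α 10 ng/ml plus SMAC mimetic 6 μM and zVAD-FMK 10 μM in serum-free medium, with compounds as a 10-point threefold titration. After 20 h at 37 °C, ATP-based luminescence was read; EC50 values are geometric means of duplicate curves.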
row,Compound,EC50 [nM]
1,"Cc1nnnn1-c1ccnc(N2CCN(C(=O)N3N=CC[C@H]3c3cncc(C#N)c3)CC2)n1 [Compound 99, (S)-5-(1-(4-(4-(5-methyl-1H-tetrazol-1-yl)pyrimidin-2-yl)piperazine-1-carbonyl)-4,5-dihydro-1H-pyrazol-5-yl)nicotinonitrile]",0.1 to 100

# Same assay, conditions: Homo sapiens; HT-29 cells, TNF-α 10 ng/ml + SMAC mimetic 6 μM + zVAD-FMK 10 μM, 20 hours; geometric mean, 10 points in duplicate; read-out: EC50 (Cell activity; Necrosis/Necroptosis Inhibitory Activity, Compounds 1-142)
row,Compound,EC50 [nM]
1,"Cc1[nH]nc(CO)c1-c1nc(N2CCN(C(=O)N3N=CC[C@H]3c3cc(F)cc(C#N)c3)CC2)ncc1F [Compound 74, (S)-3-fluoro-5-(1-(4-(5-fluoro-4-(3-(hydroxymethyl)-5-methyl-1H-pyrazol-4-yl)pyrimidin-2-yl)piperazine-1-carbonyl)-4,5-dihydro-1H-pyrazol-5-yl)benzonitrile]",0.1 to 100
2,"N#Cc1cc(F)cc([C@@H]2CC=NN2C(=O)N2CCN(c3ncc(F)c(-n4ccc(C#N)n4)n3)CC2)c1 [Compound 128, (S)-1-(2-(4-(5-(3-cyano-5-fluorophenyl)-4,5-dihydro-1H-pyrazole-1-carbonyl)piperazin-1-yl)-5-fluoropyrimidin-4-yl)-1H-pyrazole-3-carbonitrile]",0.1 to 100
3,"O=C(N1CCN(c2ncc(F)c(-c3cc[nH]n3)n2)CC1)N1N=CC[C@H]1c1cc(F)cc(F)c1 [Compound 7, (S)-(5-(3,5-difluorophenyl)-4,5-dihydro-1H-pyrazol-1-yl)(4-(5-fluoro-4-(1H-pyrazol-3-yl)pyrimidin-2-yl)piperazin-1-yl)methanone]",0.1 to 100
4,"Cc1nn(CC(N)=O)c(C)c1-c1nc(N2CCN(C(=O)N3N=CC[C@H]3c3cc(F)cc(F)c3)CC2)ncc1F [Compound 119, (S)-2-(4-(2-(4-(5-(3,5-difluorophenyl)-4,5-dihydro-1H-pyrazole-1-carbonyl)piperazin-1-yl)-5-fluoropyrimidin-4-yl)-3,5-dimethyl-1H-pyrazol-1-yl)acetamide]",0.1 to 100
5,"N#Cc1cccc([C@@H]2CC=NN2C(=O)N2CCN(c3ncc(F)c(-n4cc(C(N)=O)cn4)n3)CC2)c1 [Compound 109, (S)-1-(2-(4-(5-(3-cyanophenyl)-4,5-dihydro-1H-pyrazole-1-carbonyl)piperazin-1-yl)-5-fluoropyrimidin-4-yl)-1H-pyrazole-4-carboxamide]",0.1 to 100
6,"Cn1ncc(Cl)c1-c1nc(N2CCN(C(=O)N3N=CC[C@H]3c3cc(F)cc(F)c3)CC2)ncc1F [Compound 68, (S)-(4-(4-(4-chloro-1-methyl-1H-pyrazol-5-yl)-5-fluoropyrimidin-2-yl)piperazin-1-yl)(5-(3,5-difluorophenyl)-4,5-dihydro-1H-pyrazol-1-yl)methanone]",0.1 to 100
7,"Cc1nnnn1-c1nc(N2CCN(C(=O)N3N=CC[C@H]3c3cc(F)cc(C#N)c3)CC2)ncc1F [Compound 59, (S)-3-fluoro-5-(1-(4-(5-fluoro-4-(5-methyl-1H-tetrazol-1-yl)pyrimidin-2-yl)piperazine-1-carbonyl)-4,5-dihydro-1H-pyrazol-5-yl)benzonitrile]",0.1 to 100
8,Cn1nncc1-c1nc(N2CCN(C(=O)N3N=CC[C@H]3c3cc(F)cc(C#N)c3)CC2)ncc1F [Compound 41],0.1 to 100
9,"Cc1cc(C(N)=O)cn1-c1nc(N2CCN(C(=O)N3N=CC[C@H]3c3cc(F)cc(F)c3)CC2)ncc1F [Compound 92, (S)-1-(2-(4-(5-(3,5-difluorophenyl)-4,5-dihydro-1H-pyrazole-1-carbonyl)piperazin-1-yl)-5-fluoropyrimidin-4-yl)-5-methyl-1H-pyrrole-3-carboxamide]",0.1 to 100
10,"COc1nc(OC)c(-c2nc(N3CCN(C(=O)N4N=CC[C@H]4c4cc(F)cc(F)c4)CC3)ncc2F)c(OC)n1 [Compound 49, (S)-(5-(3,5-difluorophenyl)-4,5-dihydro-1H-pyrazol-1-yl)(4-(5-fluoro-2′,4′,6′-trimethoxy-[4,5′-bipyrimidin]-2-yl)piperazin-1-yl)methanone]",0.1 to 100
11,"NC(=O)c1cnn(-c2nc(N3CCN(C(=O)N4N=CC[C@H]4c4cc(F)cc(F)c4)CC3)ncc2F)c1 [Compound 101, (5)-1-(2-(4-(5-(3,5-difluorophenyl)-4,5-dihydro-1H-pyrazole-1-carbonyl)piperazin-1-yl)-5-fluoropyrimidin-4-yl)-1H-pyrazole-4-carboxamide]",0.1 to 100
12,"Cc1ncc(-c2nc(N3CCN(C(=O)N4N=CC[C@H]4c4cc(F)cc(F)c4)CC3)ncc2F)s1 [Compound 56, (S)-(5-(3,5-difluorophenyl)-4,5-dihydro-1H-pyrazol-1-yl)(4-(5-fluoro-4-(2-methylthiazol-5-yl)pyrimidin-2-yl)piperazin-1-yl)methanone]",0.1 to 100
13,"Cn1cccc(-c2nc(N3CCN(C(=O)N4N=CC[C@H]4c4cc(F)cc(F)c4)CC3)ncc2F)c1=O [Compound 88, (S)-3-(2-(4-(5-(3,5-difluorophenyl)-4,5-dihydro-1H-pyrazole-1-carbonyl)piperazin-1-yl)-5-fluoropyrimidin-4-yl)-1-methylpyridin-2(1H)-one]",0.1 to 100
14,"Cc1nn(-c2nc(N3CCN(C(=O)N4N=CC[C@H]4c4cc(F)cc(C#N)c4)CC3)ncc2F)c(C)c1N [Compound 131, (S)-3-(1-(4-(4-(4-amino-3,5-dimethyl-1H-pyrazol-1-yl)-5-fluoropyrimidin-2-yl)piperazine-1-carbonyl)-4,5-dihydro-1H-pyrazol-5-yl)-5-fluorobenzonitrile]",0.1 to 100

# Same assay, conditions: Homo sapiens; HT-29 cells, TNF-α 10 ng/ml + SMAC mimetic 6 μM + zVAD-FMK 10 μM, 20 hours; geometric mean, 10 points in duplicate; read-out: EC50 (Cell activity; Necrosis/Necroptosis Inhibitory Activity, Compounds 143-323)
row,Compound,EC50 [nM]
1,"Cc1nn(-c2nc(N3CCN(C(=O)N4N=CC[C@H]4c4cc(F)cc(C#N)c4)CC3)ncc2F)c(C)c1[N+](=O)[O-] [Compound 191, (S)-3-(1-(4-(4-(3,5-dimethyl-4-nitro-1H-pyrazol-1-yl)-5-fluoropyrimidin-2-yl)piperazine-1-carbonyl)-4,5-dihydro-1H-pyrazol-5-yl)-5-fluorobenzonitrile]",0.1 to 100
2,"O=C(N1CCN(c2ncc(F)c(-n3cnc(C(F)(F)F)n3)n2)CC1)N1N=CC[C@H]1c1cncc(F)c1 [Compound 314, (S)-(4-(5-fluoro-4-(3-(trifluoromethyl)-1H-1,2,4-triazol-1-yl)pyrimidin-2-yl)piperazin-1-yl)(5-(5-fluoropyridin-3-yl)-4,5-dihydro-1H-pyrazol-1-yl)methanone]",0.1 to 100
3,"CCn1cnn(-c2nc(N3CCN(C(=O)N4N=CC[C@H]4c4cc(F)cc(C#N)c4)CC3)ncc2F)c1=O [Compound 200, (S)-3-(1-(4-(4-(4-ethyl-5-oxo-4,5-dihydro-1H-1,2,4-triazol-1-yl)-5-fluoropyrimidin-2-yl)piperazine-1-carbonyl)-4,5-dihydro-1H-pyrazol-5-yl)-5-fluorobenzonitrile]",0.1 to 100
4,"O=C(N1CCN(c2ncc(F)c(-n3nccc3C(F)(F)F)n2)CC1)N1N=CC[C@H]1c1cccc(F)c1 [Compound 302, (S)-(4-(5-fluoro-4-(5-(trifluoromethyl)-1H-pyrazol-1-yl)pyrimidin-2-yl)piperazin-1-yl)(5-(3-fluorophenyl)-4,5-dihydro-1H-pyrazol-1-yl)methanone]",0.1 to 100
5,"Cc1nn(-c2ccnc(N3CCN(C(=O)N4N=CC[C@H]4c4cncc(F)c4)CC3)n2)c(C)c1C(N)=O [Compound 285, (S)-1-(2-(4-(5-(5-fluoropyridin-3-yl)-4,5-dihydro-1H-pyrazole-1-carbonyl)piperazin-1-yl)pyrimidin-4-yl)-3,5-dimethyl-1H-pyrazole-4-carboxamide]",0.1 to 100
6,"Cc1nn(-c2cc(N3CCN(C(=O)N4N=CC[C@H]4c4cc(F)cc(F)c4)CC3)ncn2)c(C)c1C#N [Compound 280, (S)-1-(6-(4-(5-(3,5-difluorophenyl)-4,5-dihydro-1H-pyrazole-1-carbonyl)piperazin-1-yl)pyrimidin-4-yl)-3,5-dimethyl-1H-pyrazole-4-carbonitrile]",0.1 to 100
7,"Cc1ncc(C2CC=NN2C(=O)N2CCN(c3cc(-c4c(C)cnn4C)ncc3F)CC2)s1 (stereo not drawn) [Compound 292, (4-(2-(1,4-dimethyl-1H-pyrazol-5-yl)-5-fluoropyridin-4-yl)piperazin-1-yl)(5-(2-methylthiazol-5-yl)-4,5-dihydro-1H-pyrazol-1-yl)methanone]",100 to 1000
8,"Cc1nn(-c2ccnc(N3CCN(C(=O)N4N=CC[C@H]4c4cc(F)cc(C#N)c4)CC3)n2)c(C)c1C(N)=O [Compound 276, (S)-1-(2-(4-(5-(3-cyano-5-fluorophenyl)-4,5-dihydro-1H-pyrazole-1-carbonyl)piperazin-1-yl)pyrimidin-4-yl)-3,5-dimethyl-1H-pyrazole-4-carboxamide]",0.1 to 100
9,"CCn1nc(C)n(-c2nc(N3CCN(C(=O)N4N=CC[C@H]4c4cc(F)cc(F)c4)CC3)ncc2F)c1=O [Compound 182, (S)-4-(2-(4-(5-(3,5-difluorophenyl)-4,5-dihydro-1H-pyrazole-1-carbonyl)piperazin-1-yl)-5-fluoropyrimidin-4-yl)-2-ethyl-5-methyl-2,4-dihydro-3H-1,2,4-triazol-3-one]",0.1 to 100
10,Cc1nc(CF)nn1-c1nc(N2CCN(C(=O)N3N=CC[C@H]3c3cc(F)cc(C#N)c3)CC2)ncc1F [Compound 246],0.1 to 100
11,"Cn1nc(CO)nc1-c1nc(N2CCN(C(=O)N3N=CCC3c3cc(F)cc(F)c3)CC2)ncc1F (stereo not drawn) [Compound 227, (5-(3,5-difluorophenyl)-4,5-dihydro-1H-pyrazol-1-yl)(4-(5-fluoro-4-(3-(hydroxymethyl)-1-methyl-1H-1,2,4-triazol-5-yl)pyrimidin-2-yl)piperazin-1-yl)methanone]",0.1 to 100
12,"O=C(N1CCN(c2ncc(F)c(-n3nccc3C(F)(F)F)n2)CC1)N1N=CC[C@H]1c1cncc(F)c1 [Compound 308, (S)-(4-(5-fluoro-4-(5-(trifluoromethyl)-1H-pyrazol-1-yl)pyrimidin-2-yl)piperazin-1-yl)(5-(5-fluoropyridin-3-yl)-4,5-dihydro-1H-pyrazol-1-yl)methanone]",0.1 to 100

# Reference: patent US12454529B2, “Piperazine cyclic ureas” (SIRONAX LTD., priority 2020, dated 2025)
